The source of these data is patent EP1519709B1, “NOVEL COSMETIC APPLICATIONS OF POLYPHENOLS AND DERIVATIVES THEREOF” (Caudalie, priority 2002, dated 2004).

Molecules are shown by their SMILES. Where two headings read alike, the source gives them in different places.

The assay deals with tyrosinase (enzyme EC 1.14.18,1, issue de champignon). Kind of assay: Tyrosinase inhibition test (L-dopa to dopachrome, read at 475 nm). The following applies: for IC50: read-out: CI50 (the source's name). The assay is classed as biochemical. The protocol:
Mélange A : l'échantillon à tester à différentes concentrations (200 μL), ainsi qu'un "contrôle" (tampon phosphate, pH 6,5), sont incubés pendant 30 minutes à 37°C en présence de tyrosinase (enzyme EC 1.14.18,1, issue de champignon; 200μL, 300 U/mL). Mélange B : 200 μL de L-dopa (2,5 mM) sont additionnés à 400 μL de tampon phosphate (pH 6,5). Après les 30 minutes d'incubation, le mélange A est ajouté au mélange B et la dopachrome produite est mesurée à 475 nm au bout d'une minute […].

Setting [1] is: mushroom tyrosinase 300 U/mL, 30 min preincubation at 37°C, phosphate buffer pH 6,5, L-dopa 2,5 mM, dopachrome at 475 nm, mean with spread, n in cell.

For `Oc1ccc(/C=C/c2cc(O)cc3c2[C@@H](c2cc(O)cc(O)c2)[C@H](c2ccc(O)cc2)O3)cc1` [Bloc VIII, ε-viniférine], for the setting “tyrosinase inhibition test”, the “IC50 of the dimer relative to that of the monomer (resvératrol)” value is less than 10 fois. For the molecule `Oc1ccc(C=Cc2cc(O)cc3c2C(c2cc(O)cc(O)c2)C(c2ccc(O)cc2)O3)cc1` (stereo not shown) [VIII], under setting [1], the IC50 was 10.4 µM.

In the case of `Oc1ccc(C=Cc2cc(O)cc(O)c2)cc1` [Bloc II, resvératrol, reference compound], the IC50 (bounds stated in running text for the tyrosinase inhibition tests under the conditions of the examples) is more than 60 µM.

As to `Oc1ccc(C=Cc2cc(O)cc(O)c2)cc1` [II], the IC50 under setting [1] worked out at 61.4 µM.
